Experimental data reported in patent publication US20110151089A1, “COMPOSITION CONTAINING MAGNESIUM GLUTAMATE WHICH CAN ENHANCE THE SALTINESS OF FOODS AND DRINKS” (priority 2008, published 2011).

Assay: Sensory evaluation test of miso sample solutions without broth, experts' panel of six adult persons (Example 2)
Set-up: species or system human
Settings: converted sodium chloride concentration about 0.625%, scale with 7 gradations, from 0 to 7
Excerpt: A scale with 7 gradations, from 0 to 7, was used to evaluate the “strength of saltiness” and “overall strength of miso soup flavor”.

N[C@@H](CCC(=O)[O-])C(=O)[O-].[Mg+2] [MDG, magnesium glutamate]
Strength of saltiness: improved
